# Measurements reported in PubChem BioAssay (NCI).
#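 Compound exposure: 48 hours, 5 concentrations, 96-well plates. TGI marks complete inhibition of growth.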
# Experiments:
# Assay in all cases: NCI-60 cell line screen, 48 h
# [1] = system: BT-549 breast
# [2] = system: U251 CNS
# [3] = system: A498 renal
# [4] = system: ACHN renal
# [5] = system: MDA-MB-435
# [6] = system: HCT-116 colon
# [7] = system: UACC-62 melanoma
# [8] = system: MALME-3M melanoma
# [9] = system: PC-3 prostate
# [10] = system: SK-MEL-2 melanoma
# [11] = system: T-47D breast
# [12] = system: UO-31 renal
# [13] = system: SNB-19 CNS
# [14] = system: SW-620 colon
# [15] = system: KM12 colon
# [16] = system: UACC-257 melanoma
# [17] = system: NCI/ADR-RES ovarian
# [18] = system: HS 578T breast
# [19] = system: SNB-75 CNS
# [20] = system: MOLT-4 leukemia
# [21] = system: NCI-H460 lung
# [22] = system: CAKI-1 renal
# [23] = system: EKVX NSCLC
# [24] = system: NCI-H23 lung
# [25] = system: HOP-92 NSCLC
# [26] = system: 786-0 renal
# [27] = system: RXF 393 renal
# [28] = system: HCT-15 colon
# [29] = system: OVCAR-3 ovarian
# [30] = system: SK-OV-3 ovarian
# [31] = system: HCC-2998 colon
# [32] = system: OVCAR-8 ovarian
# [33] = system: SK-MEL-5 melanoma
# [34] = system: OVCAR-4 ovarian
# [35] = system: M14 melanoma
# [36] = system: HT29 colon
# [37] = system: NCI-H522 lung
# [38] = system: MDA-N
# [39] = system: K-562 leukemia
# [40] = system: COLO 205 colon
# [41] = system: SF-295 CNS
# [42] = system: HOP-62 NSCLC
# [43] = system: RPMI-8226 leukemia
# [44] = system: CCRF-CEM leukemia
# [45] = system: OVCAR-5 ovarian
# [46] = system: IGROV1 ovarian
# [47] = system: MDA-MB-231 breast
# [48] = system: DU-145 prostate
# [49] = system: A549 NSCLC
# [50] = system: SK-MEL-28 melanoma
# [51] = system: MCF7 breast
# [52] = system: SF-268 CNS
# [53] = system: TK-10 renal
# [54] = system: NCI-H226 lung
# [55] = system: SF-539 CNS
# [56] = system: LOX IMVI melanoma
# [57] = system: SN12C renal
# [58] = system: HL-60(TB) leukemia
compound,measurement,setting,value
COC1OC(Cn2c(C)nc(Br)c2Br)C(O)C(O)C1O (centres undefined),TGI,[1],> 100 µM
same,TGI,[2],> 100 µM
same,TGI,[3],> 100 µM
same,TGI,[4],> 100 µM
same,TGI,[5],> 100 µM
same,TGI,[6],> 100 µM
same,TGI,[7],> 100 µM
same,TGI,[8],> 100 µM
same,TGI,[9],> 100 µM
same,TGI,[10],> 100 µM
same,TGI,[11],> 100 µM
same,TGI,[12],> 100 µM
same,TGI,[13],> 100 µM
same,TGI,[14],> 100 µM
same,TGI,[15],> 100 µM
same,TGI,[16],> 100 µM
same,TGI,[17],> 100 µM
same,TGI,[18],> 100 µM
same,TGI,[19],> 100 µM
same,TGI,[20],> 100 µM
same,TGI,[21],> 100 µM
same,TGI,[22],> 100 µM
same,TGI,[23],> 100 µM
same,TGI,[24],> 100 µM
same,TGI,[25],> 100 µM
same,TGI,[26],> 100 µM
same,TGI,[27],> 100 µM
same,TGI,[28],> 100 µM
same,TGI,[29],> 100 µM
same,TGI,[30],> 100 µM
same,TGI,[31],> 100 µM
same,TGI,[32],> 100 µM
same,TGI,[33],> 100 µM
same,TGI,[34],> 100 µM
same,TGI,[35],> 100 µM
same,TGI,[36],> 100 µM
same,TGI,[37],> 100 µM
same,TGI,[38],> 100 µM
same,TGI,[39],> 100 µM
same,TGI,[40],> 100 µM
same,TGI,[41],> 100 µM
same,TGI,[42],> 100 µM
same,TGI,[43],> 100 µM
same,TGI,[44],> 100 µM
same,TGI,[45],> 100 µM
same,TGI,[46],> 100 µM
same,TGI,[47],> 100 µM
same,TGI,[48],> 100 µM
same,TGI,[49],> 100 µM
same,TGI,[50],> 100 µM
same,TGI,[51],> 100 µM
CCCCCCCCCCCCCCCCCCNc1nc(=O)n(C2CC(O)C(COP(=O)(O)OCC(COP(=O)(O)OC3C(CO)OC(n4ccc(N)nc4=O)C3O)OCCCCCCCCCCCCCCCCCC)O2)cc1F (centres undefined),TGI,[1],> 100 µM
same,TGI,[2],34.6 µM
same,TGI,[3],> 100 µM
same,TGI,[4],> 100 µM
same,TGI,[5],> 100 µM
same,TGI,[52],> 100 µM
same,TGI,[6],> 100 µM
same,TGI,[7],> 100 µM
same,TGI,[8],> 100 µM
same,TGI,[9],35.4 µM
same,TGI,[10],> 100 µM
same,TGI,[11],> 100 µM
same,TGI,[53],> 100 µM
same,TGI,[12],> 100 µM
same,TGI,[13],56.5 µM
same,TGI,[14],> 100 µM
same,TGI,[15],> 100 µM
same,TGI,[16],> 100 µM
same,TGI,[17],> 100 µM
same,TGI,[18],> 100 µM
same,TGI,[19],> 100 µM
same,TGI,[20],> 100 µM
same,TGI,[21],30.9 µM
same,TGI,[22],> 100 µM
same,TGI,[23],> 100 µM
same,TGI,[54],> 100 µM
same,TGI,[24],> 100 µM
same,TGI,[25],> 100 µM
same,TGI,[26],33.3 µM
same,TGI,[27],40.8 µM
same,TGI,[28],> 100 µM
same,TGI,[55],> 100 µM
same,TGI,[29],> 100 µM
same,TGI,[30],> 100 µM
same,TGI,[31],> 100 µM
same,TGI,[32],> 100 µM
same,TGI,[33],> 100 µM
same,TGI,[56],42.5 µM
same,TGI,[57],> 100 µM
same,TGI,[34],> 100 µM
same,TGI,[35],> 100 µM
same,TGI,[36],> 100 µM
same,TGI,[37],> 100 µM
same,TGI,[38],> 100 µM
same,TGI,[39],> 100 µM
same,TGI,[40],37.7 µM
same,TGI,[41],> 100 µM
same,TGI,[42],> 100 µM
same,TGI,[43],74.2 µM
same,TGI,[44],> 100 µM
same,TGI,[45],> 100 µM
same,TGI,[58],> 100 µM
same,TGI,[46],> 100 µM
same,TGI,[47],> 100 µM
same,TGI,[48],> 100 µM
same,TGI,[49],> 100 µM
same,TGI,[50],> 100 µM
same,TGI,[51],> 100 µM
CCO/C(O)=C(/C(=N)N1CCOCC1)C(=O)Nc1cccc(Cl)c1,TGI,[1],> 100 µM
same,TGI,[2],> 100 µM
same,TGI,[3],> 100 µM
same,TGI,[4],> 100 µM
same,TGI,[5],> 100 µM
same,TGI,[52],> 100 µM
same,TGI,[6],> 100 µM
same,TGI,[7],> 100 µM
same,TGI,[8],> 100 µM
same,TGI,[9],> 100 µM
same,TGI,[10],> 100 µM
same,TGI,[11],> 100 µM
same,TGI,[53],> 100 µM
same,TGI,[13],> 100 µM
same,TGI,[14],> 100 µM
same,TGI,[15],> 100 µM
same,TGI,[16],> 100 µM
same,TGI,[17],> 100 µM
same,TGI,[18],> 100 µM
same,TGI,[19],> 100 µM
same,TGI,[20],> 100 µM
same,TGI,[21],> 100 µM
same,TGI,[22],> 100 µM
same,TGI,[23],> 100 µM
same,TGI,[54],> 100 µM
same,TGI,[24],> 100 µM
same,TGI,[26],> 100 µM
same,TGI,[27],> 100 µM
same,TGI,[28],> 100 µM
same,TGI,[55],> 100 µM
same,TGI,[29],> 100 µM
same,TGI,[30],> 100 µM
same,TGI,[31],> 100 µM
same,TGI,[32],> 100 µM
same,TGI,[56],> 100 µM
same,TGI,[57],> 100 µM
same,TGI,[34],> 100 µM
same,TGI,[35],> 100 µM
same,TGI,[36],> 100 µM
same,TGI,[37],> 100 µM
same,TGI,[38],> 100 µM
same,TGI,[39],> 100 µM
same,TGI,[40],> 100 µM
same,TGI,[41],> 100 µM
same,TGI,[42],> 100 µM
same,TGI,[43],> 100 µM
same,TGI,[44],> 100 µM
same,TGI,[45],> 100 µM
same,TGI,[58],> 100 µM
same,TGI,[46],> 100 µM
same,TGI,[47],> 100 µM
same,TGI,[48],> 100 µM
same,TGI,[49],> 100 µM
same,TGI,[50],> 100 µM
same,TGI,[51],> 100 µM
